Laboratory results as given in PubChem BioAssay AID1963833 (Molecular Pharmacology Branch, DTP, NCI, 2024).
pIC50: −log10 of the molar value.

Test system: 883617-216-R-J1-PDC complex spheroid viability
Experiment: Anticancer human tumor 883617-216-R-J1-PDC patient-derived bladder carcinoma cell line growth inhibition [POLQ]
Settings: for pIC50: curve of first compound; for viability, T/C: stronger effect = lower value
Method in brief: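 Patient-derived tumour cells were co-cultured with HUVEC and mesenchymal stem cells as multicellular spheroids at 37 °C. They were treated with POLQ inhibitors (novobiocin, ART-558, RP6685) alone or combined with other agents. Top concentrations were at or near clinical Cmax (otherwise 10 microM; SN-38 at 1 microM), decreasing in half-log steps.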

[1] = second compound 0.0316 µM, first compound 0.0316 µM
[2] = second compound 0.0316 µM, first compound 0.1 µM
[3] = second compound 0.0316 µM, first compound 0.316 µM
[4] = second compound 0.0316 µM, first compound 1 µM
[5] = second compound 0.0316 µM, first compound 3.16 µM
[6] = second compound 0.0316 µM, first compound 10 µM
[7] = second compound 0.1 µM, first compound 0.0316 µM
[8] = second compound 0.1 µM, first compound 0.1 µM
[9] = second compound 0.1 µM, first compound 0.316 µM
[10] = second compound 0.1 µM, first compound 1 µM
[11] = second compound 0.1 µM, first compound 3.16 µM
[12] = second compound 0.1 µM, first compound 10 µM
[13] = second compound 0.316 µM, first compound 0.0316 µM
[14] = second compound 0.316 µM, first compound 0.1 µM
[15] = second compound 0.316 µM, first compound 0.316 µM
[16] = second compound 0.316 µM, first compound 1 µM
[17] = second compound 0.316 µM, first compound 3.16 µM
[18] = second compound 0.316 µM, first compound 10 µM
[19] = second compound 1 µM, first compound 0.0316 µM
[20] = second compound 1 µM, first compound 0.1 µM
[21] = second compound 1 µM, first compound 0.316 µM
[22] = second compound 1 µM, first compound 1 µM
[23] = second compound 1 µM, first compound 3.16 µM
[24] = second compound 1 µM, first compound 10 µM
[25] = second compound 3.16 µM, first compound 0.0316 µM
[26] = second compound 3.16 µM, first compound 0.1 µM
[27] = second compound 3.16 µM, first compound 0.316 µM
[28] = second compound 3.16 µM, first compound 1 µM
[29] = second compound 3.16 µM, first compound 3.16 µM
[30] = second compound 3.16 µM, first compound 10 µM
[31] = second compound 10 µM, first compound 0.0316 µM
[32] = second compound 10 µM, first compound 0.1 µM
[33] = second compound 10 µM, first compound 0.316 µM
[34] = second compound 10 µM, first compound 1 µM
[35] = second compound 10 µM, first compound 3.16 µM
[36] = second compound 10 µM, first compound 10 µM
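Note: spheroids exposed to compounds for seven days before readout.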
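Throughout, for viability, T/C: 100% = DMSO vehicle control viability.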

COc1cc(C2c3cc4c(cc3C(OC3OC5COC(C)OC5C(O)C3O)C3COC(=O)C23)OCO4)cc(OC)c1O (stereo unspecified) + Nc1ccc(C#CCN(C(=O)Cc2ncc(C(F)(F)F)cc2C(F)(F)F)c2ccc(F)cc2)nn1
pIC50 (second compound 0.0316 µM): < 5.00
pIC50 (second compound 0.1 µM): < 5.00
pIC50 (second compound 0.316 µM): < 5.00
pIC50 (second compound 1 µM): < 5.00
pIC50 (second compound 3.16 µM): < 5.00
pIC50 (second compound 10 µM): < 5.00
viability, T/C [1]: 103%
viability, T/C [2]: 99.1%
viability, T/C [3]: 65.7%
viability, T/C [4]: 82.1%
viability, T/C [5]: 67.5%
viability, T/C [6]: 60%
viability, T/C [7]: 112%
viability, T/C [8]: 98.8%
viability, T/C [9]: 81%
viability, T/C [10]: 75.9%
viability, T/C [11]: 69.4%
viability, T/C [12]: 59.6%
viability, T/C [13]: 104%
viability, T/C [14]: 105%
viability, T/C [15]: 92.3%
viability, T/C [16]: 64.4%
viability, T/C [17]: 69.7%
viability, T/C [18]: 54%
viability, T/C [19]: 104%
viability, T/C [20]: 102%
viability, T/C [21]: 83.2%
viability, T/C [22]: 80%
viability, T/C [23]: 87.8%
viability, T/C [24]: 62.1%
viability, T/C [25]: 91.8%
viability, T/C [26]: 117%
viability, T/C [27]: 81.8%
viability, T/C [28]: 73.2%
viability, T/C [29]: 69.1%
viability, T/C [30]: 58.6%
viability, T/C [31]: 101%
viability, T/C [32]: 107%
viability, T/C [33]: 92.3%
viability, T/C [34]: 75%
viability, T/C [35]: 80.7%
viability, T/C [36]: 70.5%

O=C(c1cc(Cc2n[nH]c(=O)c3ccccc23)ccc1F)N1CCN(C(=O)C2CC2)CC1 + Nc1ccc(C#CCN(C(=O)Cc2ncc(C(F)(F)F)cc2C(F)(F)F)c2ccc(F)cc2)nn1
pIC50 (second compound 0.0316 µM): < 5.00
pIC50 (second compound 0.1 µM): < 5.00
pIC50 (second compound 0.316 µM): < 5.00
pIC50 (second compound 1 µM): < 5.00
pIC50 (second compound 3.16 µM): < 5.00
pIC50 (second compound 10 µM): < 5.00
viability, T/C [1]: 90%
viability, T/C [2]: 105%
viability, T/C [3]: 83.3%
viability, T/C [4]: 89.8%
viability, T/C [5]: 90.3%
viability, T/C [6]: 67.8%
viability, T/C [7]: 92.8%
viability, T/C [8]: 109%
viability, T/C [9]: 92.7%
viability, T/C [10]: 97.5%
viability, T/C [11]: 95.4%
viability, T/C [12]: 86.4%
viability, T/C [13]: 97.9%
viability, T/C [14]: 109%
viability, T/C [15]: 100%
viability, T/C [16]: 89.1%
viability, T/C [17]: 75.7%
viability, T/C [18]: 87.9%
viability, T/C [19]: 100%
viability, T/C [20]: 86.8%
viability, T/C [21]: 99.3%
viability, T/C [22]: 104%
viability, T/C [23]: 84.8%
viability, T/C [24]: 95.3%
viability, T/C [25]: 90%
viability, T/C [26]: 99.5%
viability, T/C [27]: 92.2%
viability, T/C [28]: 91.3%
viability, T/C [29]: 81.2%
viability, T/C [30]: 73%
viability, T/C [31]: 97%
viability, T/C [32]: 103%
viability, T/C [33]: 100%
viability, T/C [34]: 93.1%
viability, T/C [35]: 94.2%
viability, T/C [36]: 73%

O=c1[nH]cc(F)c(=O)[nH]1 + Nc1ccc(C#CCN(C(=O)Cc2ncc(C(F)(F)F)cc2C(F)(F)F)c2ccc(F)cc2)nn1
pIC50 (second compound 0.0316 µM): < 5.00
pIC50 (second compound 0.1 µM): < 5.00
pIC50 (second compound 0.316 µM): < 5.00
pIC50 (second compound 1 µM): < 5.00
pIC50 (second compound 3.16 µM): < 5.00
pIC50 (second compound 10 µM): < 5.00
viability, T/C [1]: 112%
viability, T/C [2]: 105%
viability, T/C [3]: 93.2%
viability, T/C [4]: 87.1%
viability, T/C [5]: 94.2%
viability, T/C [6]: 70.3%
viability, T/C [7]: 102%
viability, T/C [8]: 108%
viability, T/C [9]: 101%
viability, T/C [10]: 105%
viability, T/C [11]: 93.3%
viability, T/C [12]: 81.2%
viability, T/C [13]: 103%
viability, T/C [14]: 106%
viability, T/C [15]: 107%
viability, T/C [16]: 92.7%
viability, T/C [17]: 94.7%
viability, T/C [18]: 82.4%
viability, T/C [19]: 93.5%
viability, T/C [20]: 115%
viability, T/C [21]: 99.2%
viability, T/C [22]: 110%
viability, T/C [23]: 105%
viability, T/C [24]: 80.6%
viability, T/C [25]: 100%
viability, T/C [26]: 107%
viability, T/C [27]: 101%
viability, T/C [28]: 110%
viability, T/C [29]: 103%
viability, T/C [30]: 82.2%
viability, T/C [31]: 128%
viability, T/C [32]: 112%
viability, T/C [33]: 120%
viability, T/C [34]: 108%
viability, T/C [35]: 104%
viability, T/C [36]: 94.1%
